From patent US20190375791A1, “NEW D-CONFIGURED CATESLYTIN PEPTIDE” (priority 2016, published 2019)

Legend:
[1] = literature (Schmidtchen et al., 2002); cited from earlier work
Fusobacterium nucleatum = test: Broth dilution assay (Example 2); format: cell-based
Method: (§1) Enterococcus faecalis (CCM 2541) was obtained from the Czechoslovac Collection of Microorganisms (Czech Republic) Bacteria were cultured in Anaerobe Basal Broth (Oxoid, France) at 37° C. in anaerobic conditions. Candida albicans (ATCC© 10231™) was cultured in Sabouraud medium (BD, France) supplemented with tetracycline (10 μg/mL) and cefotaxime (10 μg/mL).
(§2) An overnight culture of each pathogen was diluted (OD600 nm=0.001) and incubated at 37° C. in 96-plates in the presence of different concentrations of antimicrobial agents. When testing Ca(OH)2, the pH of the solution was measured with by pH meter. (CyberScan pH 510©, Eutech, France). After 24 h incubation, the OD620 nm was evaluated with a spectrophotometer (Multikan EX, ThermoScientific, France). Each assay was done at least in triplicate. For each set of assay, the standard deviation was determined.

Prevotella intermedia = test: Broth dilution assay (Example 2); format: cell-based; conditions: Ca(OH)2 0.85 mg/mL alone, or combined with ½ MIC of D-CTL
Method: as §1, §2

Candida albicans = test: Broth dilution assay (Example 2); format: cell-based; conditions: Ca(OH)2 0.85 mg/mL alone, or combined with ½ MIC of D-CTL
Method: as §1, §2

HGF-1 cells = test: MTT cytotoxicity assay on HGF-1 cells (Example 2); format: cell-based, human
Method: The mammalian cell line HGF-1 (ATCC® CRL-2014™) was commercially obtained by ATCC and cultured at 37° C. and 5% CO2 in Dulbecco's Modified Eagle's Medium (Thermo Fisher Scientific, France) supplemented with 10% (v/v) bovine calf serum (Dutscher, France) and 1% (v/v) penicillin-streptomycin (Thermo Fisher Scientific, France).
The cytotoxicity of the antimicrobial agents was examined by MTT [3(4,5-dimethylthiazol-2-yl)-2,5 diphenyl tetrazolium bromide] assays (Scientific Life—France) against HGF-1 cells. Cells were incubated for 24 h in a 96-wells plate before being treated with various concentrations of Ca(OH)2 alone or supplemented with the peptide. As a control, cells were plated in each 96-wells without being treated. After 24 h, 48 h and 72 h incubation, cells were carefully washed with PBS and treated with MTT at a final concentration of 0.25 mg/mL. HGF-1 cells were then incubated for 2 h at 37° C. before being lysed with isopropanol/HCL (48:2, v/v). Cell viability was assessed by reading the OD540 nm with a Multiskan EX microplate spectrophotometer (Thermo Fisher Scientific, France). The OD540 nm of each well was then compared to the […] of the control. For each set of experiments, standard deviations were determined.

Enterococcus faecalis = format: cell-based; conditions: saturated solution of Ca(OH)2 (1.7 mg/mL, pH 9)
Method: as §1, §2

Parvimonas micra = test: Broth dilution assay (Example 2); format: cell-based; conditions: Ca(OH)2 0.85 mg/mL alone, or combined with ½ MIC of D-CTL

LL-37
degradation by the virulence factors of E. faecalis [1]: completely degraded

[Ca+2].[OH-].[OH-] [Ca(OH)2]
inhibition of F. nucleatum growth (Fusobacterium nucleatum; Ca(OH)2 0.85 mg/mL alone, or combined with ½ MIC of D-CTL): 30%±10%
inhibition of the growth of F. nucleatum (Fusobacterium nucleatum; saturated solution of Ca(OH)2 (1.7 mg/mL, pH 9)): 100% (±1%)
inhibition of P. intermedia growth (Prevotella intermedia): 77%±6%
inhibition of C. albicans growth (Candida albicans): 87%±2%
toxicity on HGF-1 (HGF-1 cells; Ca(OH)2 0.425 g/L, after three days incubation): below 4% (±7%)
toxicity on HGF-1 (HGF-1 cells; Ca(OH)2 0.85 g/L, after three days incubation): below 4% (±7%)
toxicity on HGF-1 (HGF-1 cells; saturated solution of Ca(OH)2 (1.7 mg/mL), after 24 h): 20% (±7%)
toxicity on HGF-1 (HGF-1 cells; saturated solution of Ca(OH)2 (1.7 mg/mL), after 72 h incubation): 50% (±6%)
toxicity on HGF-1 (HGF-1 cells; saturated solution of Ca(OH)2 (1.7 mg/mL), second of three values, time not clearly printed): 14% (±11%)
inhibition rate of E. faecalis growth (Enterococcus faecalis): 58% (±5%)
inhibition of P. micra growth (Parvimonas micra): 15%±6%
